≈ marks a conversion by molar mass, not a printed value. Calls of active or inactive are those of the source. The rule behind the calls is not given here.
Tests used:
[1] = Unbound volume of distribution in Wistar rat at 1 mg/kg,iv or 10 mg/kg,po administration; assay type: ADME, organism-based; details: in vivo
[2] = Oral bioavailability in Wistar rat at 10 mg/kg administration; assay type: ADME, organism-based; details: in vivo
[3] = Metabolic stability in human liver microsomes assessed as intrinsic clearance; assay type: ADME, Microsome; details: read-out: CLH
[4] = Unbound fraction in Wistar rat plasma at 1 mg/kg,iv or 10 mg/kg,po administration; assay type: ADME, organism-based
[5] = system: Cytomegalovirus; assay: Antiviral activity against Cytomegalovirus Smith intraperitoneally infected in BALB/c mouse assessed as reduction in viral burden in salivary gland at 30 mg/kg,po bid administration measured after 10 days by plaque assay; assay type: functional, organism-based; details: route ip, time 10.0 day
[6] = Inhibition of VZV DNA polymerase extracted from baculovirus infected Sf21 cells using Heterodimeric nucleic acid as substrate preincubated with enzyme for 30 mins followed by substrate and dATP addition measured after 60 mins by biotinylated UTP incorporation based AlphaLISA assay; parameters: species or system Human alphaherpesvirus 3
[7] = system: Human alphaherpesvirus 1; assay: Antiviral activity against HSV-1 F strain intranasally infected in BALB/c mouse assessed as increase in mouse survival at po bid administration for 7 days; assay type: functional, organism-based; details: time 7.0 day
[8] = system: Human alphaherpesvirus 3; assay: Antiviral activity against VZV Street infected in human MeWo cells assessed as reduction in viral replication incubated for 72 hrs by qRT-PCR analysis; assay type: functional, organism-based; details: Human alphaherpesvirus 3, Street, MeWo, 72 h; read-out: EC50
[9] = system: Cytomegalovirus; assay: Antiviral activity against Cytomegalovirus Smith intraperitoneally infected in BALB/c mouse assessed as reduction in viral burden in spleen at 30 mg/kg,po bid administration measured after 4 days by plaque assay; assay type: functional, organism-based; details: route ip, time 4.0 day
[10] = system: Human alphaherpesvirus 1; assay: Antiviral activity against HSV-1 F strain intranasally infected in BALB/c mouse assessed as increase in mouse survival rate at 150 mg/kg,po bid administrated 2 days before viral infection measured after 2 days; assay type: functional, organism-based; details: time 2.0 day
[11] = target: Voltage-dependent L-type calcium channel subunit alpha-1C (Homo sapiens, UniProt Q13936); assay: Inhibition of Cav1.2 (unknown origin)
[12] = Solubility in PBS at pH 7; assay type: physicochemical
[13] = system: Human betaherpesvirus 5; assay: Antiviral activity against HCMV AD169 infected in human MRC5 cells assessed as reduction in viral replication incubated for 72 hrs in presence of 50 % serum by qRT-PCR analysis; assay type: functional, organism-based; details: Human betaherpesvirus 5, AD169, MRC5, 72 h; read-out: EC50
[14] = MRT in Wistar rat at 1 mg/kg,iv or 10 mg/kg,po administration; assay type: ADME, organism-based; details: in vivo
[15] = system: Cytomegalovirus; assay: Antiviral activity against Cytomegalovirus Smith intraperitoneally infected in BALB/c mouse assessed as reduction in viral burden in spleen at 150 mg/kg,po bid administration measured after 4 days by plaque assay; assay type: functional, organism-based; details: route ip, time 4.0 day
[16] = Unbound AUC in Wistar rat at 1 mg/kg,iv or 10 mg/kg,po administration; assay type: ADME, organism-based; details: in vivo
[17] = system: Human alphaherpesvirus 2; assay: Antiviral activity against HSV-2 G strain infected in African green monkey Vero cells assessed as reduction in viral replication incubated for 72 hrs by qRT-PCR analysis; assay type: functional, organism-based; details: Human alphaherpesvirus 2, G strain, Vero, 72 h; read-out: EC50
[18] = target: Voltage-gated inwardly rectifying potassium channel KCNH2 (Homo sapiens, UniProt Q12809); assay: Inhibition of hERG by patch-clamp assay; assay type: toxicity
[19] = system: Human alphaherpesvirus 1; assay: Antiviral activity against HSV-1 F strain infected in African green monkey Vero cells assessed as reduction in viral replication incubated for 72 hrs by qRT-PCR analysis; assay type: functional, organism-based; details: Human alphaherpesvirus 1, F strain, Vero, 72 h; read-out: EC50
[20] = Inhibition of HCMV DNA polymerase extracted from baculovirus infected Sf21 cells using Heterodimeric nucleic acid as substrate preincubated with enzyme for 30 mins followed by substrate and dATP addition measured after 60 mins by biotinylated UTP incorporation based AlphaLISA assay; parameters: species or system Human betaherpesvirus 5
[21] = system: Cytomegalovirus; assay: Antiviral activity against Cytomegalovirus Smith intraperitoneally infected in BALB/c mouse assessed as reduction in viral burden in salivary gland at 150 mg/kg,po bid administration measured after 10 days by plaque assay; assay type: functional, organism-based; details: route ip, time 10.0 day
[22] = target: Sodium channel protein type 5 subunit alpha (Homo sapiens, UniProt Q14524); assay: Inhibition of Nav1.5 (unknown origin)
[23] = system: Human alphaherpesvirus 1; assay: Antiviral activity against HSV-1 F strain intranasally infected in BALB/c mouse assessed as reduction in viral burden in lung at 30 to 150 mg/kg,po bid administration measured after 4 days; assay type: functional, organism-based; details: dose 30-150 mg/kg, time 4.0 day
[24] = system: Human alphaherpesvirus 1; assay: Antiviral activity against HSV-1 F strain intranasally infected in BALB/c mouse assessed as reduction in viral burden in brain at 30 to 150 mg/kg,po bid administration measured after 4 days by plaque assay; assay type: functional, organism-based; details: dose 30-150 mg/kg, time 4.0 day
[25] = Unbound clearance in Wistar rat at 1 mg/kg,iv administration; assay type: ADME, organism-based; details: in vivo
[26] = Inhibition of Inward-rectifier potassium channel (unknown origin); parameters: species or system Homo sapiens
[27] = system: Human alphaherpesvirus 1; assay: Antiviral activity against HSV-1 F strain intranasally infected in BALB/c mouse assessed as increase in mouse survival rate at 30 mg/kg,po bid administrated 2 days before viral infection measured after 2 days; assay type: functional, organism-based; details: time 2.0 day
[28] = system: Human alphaherpesvirus 1; assay: Antiviral activity against HSV-1 F strain intranasally infected in BALB/c mouse assessed as increase in mouse survival rate at 150 mg/kg,po bid administration for 7 days relative to control; assay type: functional; details: Human alphaherpesvirus 1, F strain, 168 h, time 7 day

Chain of Voltage-gated inwardly rectifying potassium channel KCNH2 (Q12809 whole entry): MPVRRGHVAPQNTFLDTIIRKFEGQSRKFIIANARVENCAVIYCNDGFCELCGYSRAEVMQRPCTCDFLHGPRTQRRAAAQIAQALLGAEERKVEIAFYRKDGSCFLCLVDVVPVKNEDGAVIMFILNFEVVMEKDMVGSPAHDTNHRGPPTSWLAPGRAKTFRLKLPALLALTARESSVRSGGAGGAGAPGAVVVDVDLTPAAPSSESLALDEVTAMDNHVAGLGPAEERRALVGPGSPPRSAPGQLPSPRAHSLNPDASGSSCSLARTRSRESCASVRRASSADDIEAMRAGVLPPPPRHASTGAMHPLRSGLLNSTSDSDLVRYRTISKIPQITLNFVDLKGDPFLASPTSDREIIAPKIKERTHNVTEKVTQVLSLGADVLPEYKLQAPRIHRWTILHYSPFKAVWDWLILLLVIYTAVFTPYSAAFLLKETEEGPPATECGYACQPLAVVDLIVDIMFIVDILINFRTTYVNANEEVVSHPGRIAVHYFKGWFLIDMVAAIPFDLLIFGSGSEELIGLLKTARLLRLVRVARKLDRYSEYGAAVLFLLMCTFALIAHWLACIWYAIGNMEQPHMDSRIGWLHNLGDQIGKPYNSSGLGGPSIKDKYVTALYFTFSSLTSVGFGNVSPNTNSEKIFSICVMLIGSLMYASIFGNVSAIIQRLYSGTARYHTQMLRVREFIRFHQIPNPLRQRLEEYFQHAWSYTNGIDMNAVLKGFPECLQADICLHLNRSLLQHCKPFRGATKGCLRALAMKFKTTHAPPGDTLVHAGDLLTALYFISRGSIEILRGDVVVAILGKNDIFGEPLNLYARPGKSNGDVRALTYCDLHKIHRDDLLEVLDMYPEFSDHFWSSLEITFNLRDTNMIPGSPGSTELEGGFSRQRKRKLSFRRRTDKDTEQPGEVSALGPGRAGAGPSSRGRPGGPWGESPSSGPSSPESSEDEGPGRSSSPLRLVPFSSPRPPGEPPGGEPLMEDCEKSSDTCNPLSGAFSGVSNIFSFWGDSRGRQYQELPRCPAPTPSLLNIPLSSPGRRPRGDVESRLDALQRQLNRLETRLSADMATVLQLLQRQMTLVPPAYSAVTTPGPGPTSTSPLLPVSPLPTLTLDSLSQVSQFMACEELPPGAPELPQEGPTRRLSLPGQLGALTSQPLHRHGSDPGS
Chain of Voltage-dependent L-type calcium channel subunit alpha-1C (Q13936 whole entry): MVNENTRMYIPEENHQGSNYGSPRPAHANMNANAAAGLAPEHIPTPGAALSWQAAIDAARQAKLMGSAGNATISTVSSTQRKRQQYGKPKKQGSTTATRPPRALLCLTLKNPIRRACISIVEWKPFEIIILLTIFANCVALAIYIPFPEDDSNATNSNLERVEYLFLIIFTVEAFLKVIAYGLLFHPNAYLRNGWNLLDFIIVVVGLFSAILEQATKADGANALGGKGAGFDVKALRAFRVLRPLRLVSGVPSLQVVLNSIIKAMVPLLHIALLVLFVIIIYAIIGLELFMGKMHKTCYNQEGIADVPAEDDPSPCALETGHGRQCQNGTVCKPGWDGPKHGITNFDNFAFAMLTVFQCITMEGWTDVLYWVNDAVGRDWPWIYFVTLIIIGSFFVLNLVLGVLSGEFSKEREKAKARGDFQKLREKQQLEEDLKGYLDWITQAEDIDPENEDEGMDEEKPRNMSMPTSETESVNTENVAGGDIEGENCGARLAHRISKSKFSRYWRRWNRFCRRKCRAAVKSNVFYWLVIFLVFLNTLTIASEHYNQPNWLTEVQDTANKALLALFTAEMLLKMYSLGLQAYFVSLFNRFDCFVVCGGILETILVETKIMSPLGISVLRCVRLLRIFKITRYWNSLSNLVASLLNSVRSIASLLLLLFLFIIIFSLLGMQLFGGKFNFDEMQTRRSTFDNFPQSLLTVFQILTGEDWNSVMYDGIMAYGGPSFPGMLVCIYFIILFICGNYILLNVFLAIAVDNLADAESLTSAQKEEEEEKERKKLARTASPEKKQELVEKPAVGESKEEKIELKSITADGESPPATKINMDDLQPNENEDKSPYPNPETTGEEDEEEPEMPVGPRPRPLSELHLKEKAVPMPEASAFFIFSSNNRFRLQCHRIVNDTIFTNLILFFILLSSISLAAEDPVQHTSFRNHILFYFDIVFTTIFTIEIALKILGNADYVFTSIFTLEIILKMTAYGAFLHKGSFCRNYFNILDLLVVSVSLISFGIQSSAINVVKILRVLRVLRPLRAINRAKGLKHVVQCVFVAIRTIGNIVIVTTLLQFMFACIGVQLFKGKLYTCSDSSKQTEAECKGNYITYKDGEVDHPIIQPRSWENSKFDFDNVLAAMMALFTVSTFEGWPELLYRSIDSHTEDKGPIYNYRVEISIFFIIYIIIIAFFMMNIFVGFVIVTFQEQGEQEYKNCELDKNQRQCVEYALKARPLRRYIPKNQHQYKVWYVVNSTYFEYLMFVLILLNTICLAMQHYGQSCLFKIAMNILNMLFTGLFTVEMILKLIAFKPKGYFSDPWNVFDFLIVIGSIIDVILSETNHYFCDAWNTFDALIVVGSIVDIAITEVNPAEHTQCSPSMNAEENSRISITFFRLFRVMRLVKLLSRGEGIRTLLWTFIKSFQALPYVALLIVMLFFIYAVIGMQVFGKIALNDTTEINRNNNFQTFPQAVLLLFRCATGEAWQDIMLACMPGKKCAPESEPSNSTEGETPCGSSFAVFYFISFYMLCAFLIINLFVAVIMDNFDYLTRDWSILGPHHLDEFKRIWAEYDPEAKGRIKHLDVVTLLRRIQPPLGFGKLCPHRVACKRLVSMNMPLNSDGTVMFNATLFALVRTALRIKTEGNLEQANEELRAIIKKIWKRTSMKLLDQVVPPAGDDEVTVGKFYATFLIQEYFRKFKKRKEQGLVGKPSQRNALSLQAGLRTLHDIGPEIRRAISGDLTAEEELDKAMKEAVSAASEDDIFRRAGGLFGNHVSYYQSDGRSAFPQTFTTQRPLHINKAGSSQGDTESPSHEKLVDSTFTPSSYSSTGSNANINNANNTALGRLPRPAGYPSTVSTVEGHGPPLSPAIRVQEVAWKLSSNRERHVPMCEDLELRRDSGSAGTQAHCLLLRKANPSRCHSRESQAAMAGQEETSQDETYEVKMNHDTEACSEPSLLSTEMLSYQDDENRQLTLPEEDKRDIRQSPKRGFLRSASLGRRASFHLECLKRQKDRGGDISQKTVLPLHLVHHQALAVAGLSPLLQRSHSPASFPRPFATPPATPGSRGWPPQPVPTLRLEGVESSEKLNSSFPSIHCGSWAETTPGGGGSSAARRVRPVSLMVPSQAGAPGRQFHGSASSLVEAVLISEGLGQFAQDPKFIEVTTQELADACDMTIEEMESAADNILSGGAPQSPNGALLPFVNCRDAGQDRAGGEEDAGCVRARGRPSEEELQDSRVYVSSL

COc1cc(NC(=O)Cc2ccc(C(F)(F)F)cc2)ccc1C[C@H]1COC(=O)N1
Vdu [1]: 20 L/kg
bioavailability [2]: 71%
CLint scaled [3]: 20 mL/min/kg
fraction unbound [4]: 0.052
Activity [5]: inactive
IC50 [6]: 13 nM
Activity [7]: Dose-Dependent Effect
EC50 [8]: 126 nM
Activity [9]: inactive
Activity [10]: Active
IC50 [11]: 7600 nM
solubility [12]: 129 µM (≈ 52.7 µg/mL)
EC50 [13]: 641 nM
MRT [14]: 1.8 h
Activity [15]: Active
fAUC [16]: 0.222 µM·h
EC50 [17]: 114 nM
IC50 [18]: 27000 nM
EC50 [19]: 115 nM
IC50 [20]: 22 nM
Activity [21]: Active
IC50 [22]: 13200 nM
Activity [23]: Active
Activity [24]: Active
CL free [25]: 187 mL/min/kg
IC50 [26]: 25100 nM
Activity [27]: Active
survival at 150 mg/kg [28]: 100%

— ChEMBL document CHEMBL5579865, “Discovery of Broad-Spectrum Herpes Antiviral Oxazolidinone Amide Derivatives and Their Structure-Activity Relationships” (ACS Med Chem Lett, 2024)
